Legend:
[1] = tested on: γ-glutamylcysteine transferase
[2] = tested on: γ-glutamylcysteine transferase; assay: KM of γ-glutamylcysteine transferase for its substrates; format: biochemical, Silene cucubalus; conditions: 30° C. and pH=7.8

| Structure (SMILES) | reversibility of the inhibition ([1]; after removal of EDTA and addition of heavy metal ions) | inhibition in the presence of EDTA ([1]; in the presence of ethylenediaminetetraacetic acid) | Km [2] [mM] |
| --- | --- | --- | --- |
| O=C(O)CN(CCN(CC(=O)O)CC(=O)O)CC(=O)O [ethylenediaminetetraacetic acid (EDTA), ethylenediaminetetraacetic acid] | reversible | complete inhibition | – |
| Cc1c(C)n2c(CSC[C@H](NC(=O)CC[C@H](N)C(=O)O)C(=O)NCC(=O)O)c(C)c(=O)n2c1=O [glutathione S-biman] | – | – | 1 |
| N[C@@H](CCC(=O)N[C@@H](CS)C(=O)NCC(=O)O)C(=O)O [glutathione] | – | – | 6.8 |
